Measured values reported in patent US6369035B1, “3,6-hemiketals from the class of 9A-azalides” (Pliva, farmaceutska industrja, dionicko …, priority 1997, dated 2002).
≈ marks a conversion by molar mass, not a printed value. Where two headings read alike, the source gives them in different places.

How the values were obtained:
M. luteus ATCC 9341 = test: Antibacterial in vitro activity, MIC by double dilution, standard strains; type: cell-based; details: 37° C., 18 hours
Protocol: (§1) Antibacterial in vitro activity of the novel compounds of the general formula (I) and their pharmaceutically acceptable addition salts with inorganic or organic acids on a series of standard test-microorganisms was determined in a Mueller-Hinton medium (Difco-Laboratories, Detroit, Mich.) by a conventional method of double dilution in accordance with recommendations of NCCLS (The National Committee for Clinical Laboratory Standards). Each test microorganism was inoculated to the final inoculum size of 5×10^5 cfu/ml and the incubation was carried out in an […] manner at 37° C. during 18 hours. The MIC in the liquid medium was defined as the lowest concentration of an antibacterial agent inhibiting visible growth in microdilutional containers. Control organisms were obtained from ATCC (The American Type Culture Collection). All standards were identified by a standard procedure and were storaged at −70° C.

[1] = test system: Bacillus subtilis ATCC 6633; test: as above; type: cell-based; details: 37° C., 18 hours
Protocol: as §1

[2] = test system: S. eperidermidis ATCC 12228; test: as above; type: cell-based; details: Mueller-Hinton medium, 37° C., 18 hours
Protocol: as §1

S. aureus ATCC 29213 = test: as above; type: cell-based; details: 37° C., 18 hours
Protocol: as §1

[3] = test system: Micrococcus flavus ATCC 10240; test: as above; type: cell-based; details: 37° C., 18 hours
Protocol: as §1

[4] = test system: Streptococcus faecalis ATCC 8043; test: as above; type: cell-based; details: 37° C., 18 hours
Protocol: as §1

[5] = test system: Escherichia coli ATCC 10536; test: as above; type: cell-based; details: 37° C., 18 hours
Protocol: as §1

[6] = test system: Staphylococcus aureus ATCC 6538 P; test: as above; type: cell-based; details: 37° C., 18 hours
Protocol: as §1

B. cereus ATCC 11778 = test: as above; type: cell-based; details: 37° C., 18 hours
Protocol: as §1

[7] = test system: Streptococcus pneumoniae clinical isolates (25); test: Antibacterial in vitro activity, MIC, clinical isolates; type: cell-based; details: 25 clinical isolates
Protocol: as §1

[8] = test system: S. epidermidis clinical isolates (20); test: as above; type: cell-based; details: 20 clinical isolates
Protocol: as §1

[9] = test system: Staph. aureus. clinical isolates (77); test: as above; type: cell-based; details: 77 clinical isolates
Protocol: as §1

[10] = test system: Enterococcus sp. clinical isolates (35); test: as above; type: cell-based; details: 35 clinical isolates
Protocol: as §1

[11] = test system: Haemophilus influenzae clinical isolates (40); test: as above; type: cell-based; details: 40 clinical isolates
Protocol: as §1

[12] = rat, in vivo, po, 20 mg/kg

CC[C@H]1OC(=O)[C@H](C)[C@@H](O[C@H]2C[C@@](C)(OC)[C@@H](O)[C@H](C)O2)[C@H](C)[C@@H](O[C@@H]2O[C@H](C)C[C@H](N(C)C)[C@H]2O)[C@](C)(O)C[C@@H](C)CN(C)[C@H](C)[C@@H](O)[C@]1(C)OC [12-O-Methyl-azithromycin]
MIC (M. luteus ATCC 9341; Mueller-Hinton medium): 0.03 µg/mL (≈ 0.0393 µM)
MIC ([1]; Mueller-Hinton medium): 1 µg/mL (≈ 1.31 µM)
MIC [2]: 0.03 µg/mL (≈ 0.0393 µM)
MIC (S. aureus ATCC 29213; Mueller-Hinton medium): 0.25 µg/mL (≈ 0.328 µM)
MIC ([3]; Mueller-Hinton medium): 0.12 µg/mL (≈ 0.157 µM)
MIC ([4]; Mueller-Hinton medium): 0.25 µg/mL (≈ 0.328 µM)
MIC ([5]; Mueller-Hinton medium): 0.5 µg/mL (≈ 0.655 µM)
MIC ([6]; Mueller-Hinton medium): 0.25 µg/mL (≈ 0.328 µM)
MIC (B. cereus ATCC 11778; Mueller-Hinton medium): 0.25 µg/mL (≈ 0.328 µM)
MIC 50% [7]: 0.03 µg/mL (≈ 0.0393 µM)
MIC 90% [7]: 0.12 µg/mL (≈ 0.157 µM)
MIC Range [7]: 0.03 to 0.12 µg/mL
MIC 50% [8]: 0.25 µg/mL (≈ 0.328 µM)
MIC 90% [8]: 4 µg/mL (≈ 5.24 µM)
MIC Range [8]: 0.12 to 8 µg/mL
MIC 50% [9]: 0.25 µg/mL (≈ 0.328 µM)
MIC 90% [9]: 1 µg/mL (≈ 1.31 µM)
MIC Range [9]: 0.12 to 2 µg/mL
MIC 50% [10]: 0.5 µg/mL (≈ 0.655 µM)
MIC 90% [10]: 8 µg/mL (≈ 10.5 µM)
MIC Range [10]: 0.12 to 8 µg/mL
MIC 50% [11]: 0.12 µg/mL (≈ 0.157 µM)
MIC 90% [11]: 0.25 µg/mL (≈ 0.328 µM)
MIC Range [11]: 0.06 to 0.5 µg/mL
Cmax (maximum substance concentration in serum) [12]: 248.8 ng/mL
absorption in the serum [12]: very fast absorbed
half-life [12]: 5.2 h
time at which the maximum substance concentration was achieved [12]: 2 h
time of secondary maximum after the application [12]: 4 h
total AUC [12]: 1993.4 ng·h/mL

CC[C@H]1OC(=O)[C@H](C)[C@@H](O[C@H]2C[C@@](C)(OC)[C@@H](O)[C@H](C)O2)[C@H](C)[C@@H](O[C@@H]2O[C@H](C)C[C@H](N(C)C)[C@H]2O)[C@](C)(O)C[C@@H](C)CN(C)[C@H](C)[C@@H](O)[C@]1(C)O [Azithromycin, 9-deoxo-9a-methyl-9a-aza-9a-homoerythromycin, reference compound]
MIC (M. luteus ATCC 9341; Micrococcus luteus, ATCC9341, Mueller-Hinton medium, read-out: MIC): 0.06 µg/mL (≈ 0.0801 µM)
MIC ([1]; ATCC6633, Mueller-Hinton medium, read-out: MIC): 4 µg/mL (≈ 5.34 µM)
MIC ([2]; read-out: MIC): 0.5 µg/mL (≈ 0.668 µM)
MIC (S. aureus ATCC 29213; Staphylococcus aureus, ATCC29213, Mueller-Hinton medium, read-out: MIC): 0.25 µg/mL (≈ 0.334 µM)
MIC ([3]; ATCC10240, Mueller-Hinton medium, read-out: MIC): 0.5 µg/mL (≈ 0.668 µM)
MIC ([4]; Enterococcus faecalis, ATCC8043, Mueller-Hinton medium, read-out: MIC): 0.5 µg/mL (≈ 0.668 µM)
MIC ([5]; ATCC10536, Mueller-Hinton medium, read-out: MIC): 1 µg/mL (≈ 1.34 µM)
MIC ([6]; ATCC6538, Mueller-Hinton medium, read-out: MIC): 1 µg/mL (≈ 1.34 µM)
MIC (B. cereus ATCC 11778; Bacillus cereus, ATCC11778, Mueller-Hinton medium, read-out: MIC): 1 µg/mL (≈ 1.34 µM)
MIC50 [7]: 0.05 µg/mL (≈ 0.0668 µM)
MIC90 [7]: 0.12 µg/mL (≈ 0.16 µM)
MIC Range [7]: 0.03 to 0.25 µg/mL
MIC Range [8]: 0.25 to 16 µg/mL
MIC50 ([8]; Staphylococcus epidermidis): 0.25 µg/mL (≈ 0.334 µM)
MIC90 ([8]; Staphylococcus epidermidis): 8 µg/mL (≈ 10.7 µM)
MIC Range [9]: 0.25 to 8 µg/mL
MIC50 ([9]; Staphylococcus aureus): 1 µg/mL (≈ 1.34 µM)
MIC90 ([9]; Staphylococcus aureus): 4 µg/mL (≈ 5.34 µM)
MIC50 [10]: 1 µg/mL (≈ 1.34 µM)
MIC90 [10]: 16 µg/mL (≈ 21.4 µM)
MIC Range [10]: 0.25 to 16 µg/mL
MIC50 [11]: 0.25 µg/mL (≈ 0.334 µM)
MIC90 [11]: 0.5 µg/mL (≈ 0.668 µM)
MIC Range [11]: 0.12 to 0.5 µg/mL
